Data on two compounds can be found in patent US12303509B2, “Compounds for the treatment of BRAF-associated diseases and disorders” (Pfizer Inc., priority 2020, dated 2025).

The subject of one series is A375 cells. In words: Cellular phospho-ERK inhibition assay in A375 cells. Format: cell-based. Particulars: Homo sapiens, A-375, A375 cells (head prints A357), 2 hours treatment, read-out: A357 cell IC50. Put shortly: (§1)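 A375 (DMEM) or H1755 (RPMI) cells in 10% FBS treated 2 h at 37 °C with 9-point series, 66 pM–10 μM, 0.25% DMSO. Phospho-ERK1/2 (Thr202/Tyr204) measured by In Cell Western, normalised to GAPDH and to DMSO and 10 μM binimetinib controls; IC50 by 4-parameter fit.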

A further series has as its system H1755 cells. As to the kind of experiment: Cellular phospho-ERK inhibition assay in H1755 cells. Format: cell-based. Particulars: Homo sapiens, NCI-H1755, 2 hours treatment, read-out: H1755 Cell IC50. Put shortly: as §1
The nature of series [1]: MDR1 LLC-PK1 and BCRP MDCKII permeability assay: permeability coefficient (Papp). Format: in vitro ADME. From the text: (§2) Final organic concentration in the assay was 1%.
Another series concerns the target P-gp (MDR1) (Homo sapiens (Human), UniProt P08183). In words: MDR1 LLC-PK1 permeability assay: efflux ratio. The following applies: pig. Format: in vitro ADME.
Excerpt: as §2

A further series has as its target BCRP (Homo sapiens (Human), UniProt Q9UNQ0). In words: BCRP MDCKII permeability assay: efflux ratio. Format: in vitro ADME. The following applies: dog.
A short description of series [2]: PK (free brain-to-free plasma ratio) (mouse). Format: in vivo. Particulars: male CD-1 mice, oral gavage 10 mg/kg, unbound brain-to-unbound plasma, read-out: B/P ratio (free).

SMILES strings stand for the structures.

BCRP, sequence (Q9UNQ0 whole entry): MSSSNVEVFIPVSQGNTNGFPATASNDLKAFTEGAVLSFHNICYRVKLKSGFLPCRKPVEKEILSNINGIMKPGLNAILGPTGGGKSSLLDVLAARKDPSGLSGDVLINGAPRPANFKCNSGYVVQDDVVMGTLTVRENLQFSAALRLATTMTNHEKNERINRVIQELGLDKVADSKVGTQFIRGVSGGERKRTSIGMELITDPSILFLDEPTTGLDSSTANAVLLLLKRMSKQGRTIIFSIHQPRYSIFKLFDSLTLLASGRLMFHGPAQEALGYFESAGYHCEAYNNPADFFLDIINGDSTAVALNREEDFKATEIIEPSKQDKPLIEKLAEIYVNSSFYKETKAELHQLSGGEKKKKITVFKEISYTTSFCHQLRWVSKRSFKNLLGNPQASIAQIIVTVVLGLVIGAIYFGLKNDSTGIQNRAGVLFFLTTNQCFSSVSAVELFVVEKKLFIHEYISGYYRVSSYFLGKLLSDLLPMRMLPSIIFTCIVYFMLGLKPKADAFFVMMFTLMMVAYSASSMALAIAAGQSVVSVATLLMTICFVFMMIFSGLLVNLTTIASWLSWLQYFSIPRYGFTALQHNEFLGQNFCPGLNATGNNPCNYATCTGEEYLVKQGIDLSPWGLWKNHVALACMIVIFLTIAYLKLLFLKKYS
P-gp (MDR1), sequence (P08183 whole entry, species assumed): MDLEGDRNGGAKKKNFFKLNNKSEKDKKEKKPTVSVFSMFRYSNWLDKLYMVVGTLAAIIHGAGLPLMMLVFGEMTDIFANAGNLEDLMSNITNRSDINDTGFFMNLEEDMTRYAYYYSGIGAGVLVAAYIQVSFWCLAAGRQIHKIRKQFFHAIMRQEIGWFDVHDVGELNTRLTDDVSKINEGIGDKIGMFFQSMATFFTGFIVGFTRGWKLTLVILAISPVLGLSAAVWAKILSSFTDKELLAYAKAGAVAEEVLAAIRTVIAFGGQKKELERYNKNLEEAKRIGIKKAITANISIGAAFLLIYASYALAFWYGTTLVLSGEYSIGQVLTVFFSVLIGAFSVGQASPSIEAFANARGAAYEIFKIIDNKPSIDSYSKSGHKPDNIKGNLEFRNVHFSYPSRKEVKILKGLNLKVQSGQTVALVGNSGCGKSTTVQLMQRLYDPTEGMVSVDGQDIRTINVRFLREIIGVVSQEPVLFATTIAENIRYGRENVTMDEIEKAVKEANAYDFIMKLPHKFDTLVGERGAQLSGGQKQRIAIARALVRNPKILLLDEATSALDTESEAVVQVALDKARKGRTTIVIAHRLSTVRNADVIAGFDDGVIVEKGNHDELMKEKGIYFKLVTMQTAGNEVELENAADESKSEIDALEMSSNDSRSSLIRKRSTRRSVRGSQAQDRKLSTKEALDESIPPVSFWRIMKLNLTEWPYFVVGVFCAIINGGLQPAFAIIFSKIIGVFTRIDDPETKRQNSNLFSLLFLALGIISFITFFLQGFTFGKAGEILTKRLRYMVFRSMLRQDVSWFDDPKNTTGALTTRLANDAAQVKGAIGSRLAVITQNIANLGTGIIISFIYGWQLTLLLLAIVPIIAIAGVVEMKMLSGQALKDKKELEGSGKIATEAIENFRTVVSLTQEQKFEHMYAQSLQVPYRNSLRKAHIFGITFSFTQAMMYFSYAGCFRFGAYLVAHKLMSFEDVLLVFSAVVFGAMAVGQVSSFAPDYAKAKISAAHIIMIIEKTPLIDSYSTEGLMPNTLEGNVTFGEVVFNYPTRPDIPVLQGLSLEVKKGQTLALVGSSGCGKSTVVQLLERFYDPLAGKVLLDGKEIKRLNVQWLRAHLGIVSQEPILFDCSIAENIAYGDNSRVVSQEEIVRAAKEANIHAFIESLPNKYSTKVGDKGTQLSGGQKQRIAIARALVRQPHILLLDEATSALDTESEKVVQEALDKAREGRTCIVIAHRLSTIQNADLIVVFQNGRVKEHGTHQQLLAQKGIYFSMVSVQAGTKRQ

On to `Cn1cnc2ccc(Nc3c(F)ccc(NS(=O)(=O)N4CC5CC4C5)c3Cl)c(F)c2c1=O` [Example 13, N-(2-chloro-4-fluoro-3-((5-fluoro-3-methyl-4-oxo-3,4-dihydroquinazolin-6-yl)amino)phenyl)-2-azabicyclo[2.1.1]hexane-2-sulfonamide], for which the figures for the IC50 with A375 cells and in the series with H1755 cells were 6 nM and 78 nM, respectively. The Papp (in general, the rate of passage across a membrane or cell layer, normalised by area and donor concentration) at 2 h, 1 µM in series [1] was 32 ×10⁻⁶ cm/s. For the same compound, the values for the efflux ratio at 2 h, 1 µM on P-gp (MDR1) and at BCRP were 1.5 and 1.8, respectively. The Kp in series [2] was in the range of 0.75 to 0.93.

With `Cn1cnc2ccc(Nc3c(F)ccc(NS(=O)(=O)N4CC[C@@H](F)C4)c3Cl)c(F)c2c1=O` [Example 14, (R)-N-(2-chloro-4-fluoro-3-((5-fluoro-3-methyl-4-oxo-3,4-dihydroquinazolin-6-yl)amino)phenyl)-3-fluoropyrrolidine-1-sulfonamide], the half-inhibitory concentration (IC50) (commonly the midpoint of a concentration-inhibition curve) with A375 cells amounted to 3 nM; with H1755 cells, 21 nM. In series [1], this compound displayed an apparent permeability coefficient (Papp) at 2 h, 1 µM of 28 ×10⁻⁶ cm/s. Further, the values for the efflux ratio at 2 h, 1 µM at P-gp (MDR1) and at BCRP were 3.2 and 5.4, respectively. Moreover, in series [2], the Kp lay in the range of 0.13 to 0.39.
